Experimental data reported in patent publication US20240197735A1, “METHODS AND COMPOSITIONS COMPRISING A BRAF INHIBITOR AND A PD-1 BINDING ANTAGONIST” (Hoffmann-La Roche Inc., priority 2021, published 2024).

What was measured:
BRAF = BRAF (Homo sapiens (Human), UniProt P15056); assay: Kd affinity for BRAF kinase; assay type: binding
BRAF V600E = BRAF V600E (Homo sapiens (Human), UniProt P15056, V600E); assay: Kd affinity for BRAF V600E kinase; assay type: binding
CRAF = CRAF (Homo sapiens (Human), UniProt P04049); assay: Kd affinity for CRAF kinase; assay type: binding
Chain of CRAF (P04049 whole entry): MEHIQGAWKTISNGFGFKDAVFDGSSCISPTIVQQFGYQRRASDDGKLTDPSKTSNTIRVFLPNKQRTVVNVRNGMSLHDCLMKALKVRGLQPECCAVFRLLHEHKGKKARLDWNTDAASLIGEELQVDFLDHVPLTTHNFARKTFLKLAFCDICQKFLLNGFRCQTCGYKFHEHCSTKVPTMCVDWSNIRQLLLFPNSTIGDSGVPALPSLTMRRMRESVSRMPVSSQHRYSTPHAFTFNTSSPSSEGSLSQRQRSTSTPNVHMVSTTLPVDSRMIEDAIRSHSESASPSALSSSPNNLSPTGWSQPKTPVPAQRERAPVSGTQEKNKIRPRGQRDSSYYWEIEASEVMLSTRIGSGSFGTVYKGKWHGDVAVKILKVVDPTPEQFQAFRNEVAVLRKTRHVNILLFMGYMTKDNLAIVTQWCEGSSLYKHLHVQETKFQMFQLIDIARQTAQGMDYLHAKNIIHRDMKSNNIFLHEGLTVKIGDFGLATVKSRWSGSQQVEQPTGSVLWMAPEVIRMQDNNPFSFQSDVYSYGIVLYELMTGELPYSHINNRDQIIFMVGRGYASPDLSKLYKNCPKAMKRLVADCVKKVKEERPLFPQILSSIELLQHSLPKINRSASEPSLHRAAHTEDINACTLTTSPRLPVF

[1] = molecular target: C-terminal Src kinase (CSK) (Homo sapiens (Human), UniProt P41240); assay: Kd affinity for C-terminal Src kinase (selectivity); assay type: binding
Chain of C-terminal Src kinase (CSK) (P41240 whole entry): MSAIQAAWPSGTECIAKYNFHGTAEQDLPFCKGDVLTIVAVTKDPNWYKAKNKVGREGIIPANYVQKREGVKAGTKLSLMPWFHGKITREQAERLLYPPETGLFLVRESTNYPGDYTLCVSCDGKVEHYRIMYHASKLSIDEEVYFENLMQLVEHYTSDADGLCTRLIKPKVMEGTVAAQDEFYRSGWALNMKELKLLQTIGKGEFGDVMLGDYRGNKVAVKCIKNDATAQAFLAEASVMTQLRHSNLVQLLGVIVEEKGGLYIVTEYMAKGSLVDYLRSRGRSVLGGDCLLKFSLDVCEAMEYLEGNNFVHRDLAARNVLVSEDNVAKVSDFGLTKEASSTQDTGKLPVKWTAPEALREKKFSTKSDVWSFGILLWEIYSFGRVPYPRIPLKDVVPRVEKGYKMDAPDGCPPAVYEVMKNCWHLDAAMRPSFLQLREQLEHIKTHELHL

[2] = molecular target: lymphocyte-specific tyrosine protein kinase (LCK) (Homo sapiens (Human), UniProt P06239); assay: Kd affinity for lymphocyte-specific tyrosine protein kinase (selectivity); assay type: binding
Chain of lymphocyte-specific tyrosine protein kinase (LCK) (P06239 whole entry): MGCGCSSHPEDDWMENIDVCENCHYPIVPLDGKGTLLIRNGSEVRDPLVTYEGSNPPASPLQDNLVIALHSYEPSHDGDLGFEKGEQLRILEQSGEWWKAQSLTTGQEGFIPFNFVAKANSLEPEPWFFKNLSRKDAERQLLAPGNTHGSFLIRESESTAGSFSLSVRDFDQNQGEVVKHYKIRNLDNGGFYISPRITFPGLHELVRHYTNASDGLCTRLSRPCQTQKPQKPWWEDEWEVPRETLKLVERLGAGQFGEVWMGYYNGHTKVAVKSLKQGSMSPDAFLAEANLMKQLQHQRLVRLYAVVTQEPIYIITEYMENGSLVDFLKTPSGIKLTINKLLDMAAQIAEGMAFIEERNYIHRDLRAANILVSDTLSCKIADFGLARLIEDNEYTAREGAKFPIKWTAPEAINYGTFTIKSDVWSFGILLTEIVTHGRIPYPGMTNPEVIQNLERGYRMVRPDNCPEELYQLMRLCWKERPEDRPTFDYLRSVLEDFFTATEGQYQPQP

[3] = tested on: P-ERK in A375 cells expressing V600E mutated BRAF; assay: HTRF assay for P-ERK determination in A375 cells (BRAF inhibition); assay type: cell-based; details: Homo sapiens, A-375, 1 h, read-out: pERK IC50 (nM) A375
Method: (§1) A375 is a cellular cancer model expressing V600E mutated BRAF and HCT116 a cellular cancer model expressing WT BRAF. […] ERK 1,2 phosphorylation (terminal member of the phosphorylation cascade of the MAPK pathway) is hereafter reported as main readout for the activation status of the MAPK pathway. Prior to the assay, A375 and HCT116 cell lines are maintained in DMEM no-phenol red medium supplemented with 10% fetal bovine serum (FBS). […] Briefly, 8000 cells/well in 12 μl media/well are plated in the 384-well plate and left overnight in the incubator (at 37° C. with 5% CO2-humidified atmosphere), the following day the plate is treated in duplicate with test compounds, dabrafenib and PLX8394 (the latter two as controls) at the following final drug concentrations: 10 μM-3 μM-1 μM-0.3 μM-0.1 μM-0.03 μM-0.01 μM-0.003 μM-0.001 μM, all wells are subjected to DMSO normalization and drug incubation occurs for 1 hour. Then, 4 μl of a 4× lysis buffer supplied with the kit are added to the wells, the plate is then centrifuged for 30 second (300 rcf) and incubated on a plate shaker for 1 h at RT.
(§2) At the end of the incubation 4 μL/well of advanced P-ERK antibody solution (prepared according to manufacturer's instruction) followed by 4 μL/well of criptate P-ERK antibody solution (prepared according to manufacturer's instruction) (Cisbio cat #64AERPEH) are added to test wells.
(§3) In order to allow proper data normalization control wells without drug treatment reported are always included in each plate (according to manufacturer's instruction):
(§4) The plate is then centrifuged at 300 rcf for 30 second, sealed to prevent evaporation and incubated overnight in the dark at room temperature.
(§5) The obtained fluorescence values are processed according to the formula Ratio=[…]*10000 then the average of the ratio on the blank is subtracted to all values.
Mean of the normalized points are fitted with sigmoidal curve and IC50 determined.

[4] = tested on: P-ERK in HCT116 cells expressing WT BRAF; assay: HTRF assay for P-ERK determination in HCT116 cells (paradoxical BRAF activation); assay type: cell-based; details: HCT-116 cells; for Percentage of Maximum paradox inducing effect from dabrafenib: maximum P-ERK signal as percentage of highest dabrafenib signal within dose range tested; for EC50: read-out: p-ERK EC50 (nM) conc. (nM) at which the compound induces P-ERK activation of 50% of that induced by dabrafenib (Positive control paradox inducer) HCT-116, 1 hour drug incubation, not applicable if activation does not reach 50% of dabrafenib maximum
Method: as §1, §2, §3, §4
The plate is then analyzed and fluorescence emission value collected through a Pherastast FSX (BMG Labtech) apparatus at […].
as §5
Individual points are fitted with either sigmoidal or bell shape curves, and the percentage of activation compared to maximum dabrafenib-mediated activation is determined. The EC50 is the concentration at which activation equal to 50% of the maximum achieved by dabrafenib is obtained.
The Percentage of Maximum paradox inducing effect from dabrafenib is determined by evaluating the percentage at which the test compound induce its maximum P-ERK signal as percentage of the highest signal produced by dabrafenib within the dose range tested.

[5] = tested on: P-ERK in A375 BRAF V600E NRAS Q61K cells; assay: P-ERK levels in first generation BRAFi resistant cell model A375 BRAF V600E NRAS Q61K; assay type: cell-based
[6] = tested on: YUMM1.7 tumors (BRAF V600E); assay: In vivo antitumor activity on YUMM1.7 syngeneic allograft tumors; set-up: species or system mouse (C57BL/6); details: combination of Compound Ia (1 or 5 mg/kg PO QD) and mouse anti PD-1 antibody (IV once a week); monitored until day 58
Method: Mice were treated until day 31 and afterwards drug treatments were suspended and mice were monitored for evidences of tumor regrowth.
Mice were treated until day 45 and afterwards drug treatments were suspended and mice were monitored for evidences of tumor regrowth.
In the in vivo studies, female mice 7-9 weeks old (at experiment initiation) of the immunocompetent strain C57BL/6 were utilized. The experiment was performed at the Contract Research Organization (CRO) Covance that sourced mice, performed tumor establishment, drug treatment and tumor monitoring.
For xenograft establishment YUMM1.7 cells were suspended in a media composed of 50% Matrigel and 50% Hank's balanced Salt Solution and injected subcutaneously on the right flanks. When tumor volume reached around 100 mm^3 mice were randomized prior treatment.
Mice were implanted with the cell line YUMM1.7 harboring the BRAF V600E mutation. Upon tumor establishment (100 mm3) mice were randomized and received orally (PO) once per day (QD) either Compound Ia (1 mg/kg or 5 mg/kg), mouse anti PD-1 antibody through IV injection, once a week or the respective combinations of PD-1 and Compound Ia at 1 or 5 mg/kg. […] Upon treatment conclusion mice were monitored until day 58 for signs of tumor relapse.

[7] = tested on: YUMM1.7 tumors, immune cell infiltrate (mCD45, mCD3); assay: Immuno-phenotyping of YUMM1.7 tumors by flow cytometry and IHC; assay type: in vivo, mouse (C57/BL6)
Method: FIG. 6 reports the total immune cell (top) and T-cell (bottom) infiltrates in tumors, as quantified through flow cytometry. Total immune cell infiltrate was expressed as percentage of mCD45 positive with respect to the alive cells at day 3 and day 6, and T-cell infiltrate expressed in mCD3 positive cells per mm2.
FIG. 7 reports the immunohistochemistry analysis of the mouse immune cell marker CD45 of tumors treated for 3 days with either Vehicle, Compound Ia at 5 mg/kg (daily), mPD1 at 12.5 mg/kg (single treatment) or a combination thereof.
For the immunohistochemical analysis, female C57/BL6 mice were injected subQ with YUMM1.7 cells. When tumors reached around 250 mm^3 (day 14) mice were treated with either Compound Ia at 1 or 5 mg/kg daily (oral administration), with anti-mouse PD1 at 12.5 mg/kg once (single intraveneous administration) or the combination of Compound Ia and anti-mPD1. Mice were sacrificed and tumors collected upon 3 or five days from the beginning of the treatment and tumors were either digested and utilized for cytofluorimetric analysis of fixed and paraffin embedded.

Chain of BRAF (P15056 whole entry): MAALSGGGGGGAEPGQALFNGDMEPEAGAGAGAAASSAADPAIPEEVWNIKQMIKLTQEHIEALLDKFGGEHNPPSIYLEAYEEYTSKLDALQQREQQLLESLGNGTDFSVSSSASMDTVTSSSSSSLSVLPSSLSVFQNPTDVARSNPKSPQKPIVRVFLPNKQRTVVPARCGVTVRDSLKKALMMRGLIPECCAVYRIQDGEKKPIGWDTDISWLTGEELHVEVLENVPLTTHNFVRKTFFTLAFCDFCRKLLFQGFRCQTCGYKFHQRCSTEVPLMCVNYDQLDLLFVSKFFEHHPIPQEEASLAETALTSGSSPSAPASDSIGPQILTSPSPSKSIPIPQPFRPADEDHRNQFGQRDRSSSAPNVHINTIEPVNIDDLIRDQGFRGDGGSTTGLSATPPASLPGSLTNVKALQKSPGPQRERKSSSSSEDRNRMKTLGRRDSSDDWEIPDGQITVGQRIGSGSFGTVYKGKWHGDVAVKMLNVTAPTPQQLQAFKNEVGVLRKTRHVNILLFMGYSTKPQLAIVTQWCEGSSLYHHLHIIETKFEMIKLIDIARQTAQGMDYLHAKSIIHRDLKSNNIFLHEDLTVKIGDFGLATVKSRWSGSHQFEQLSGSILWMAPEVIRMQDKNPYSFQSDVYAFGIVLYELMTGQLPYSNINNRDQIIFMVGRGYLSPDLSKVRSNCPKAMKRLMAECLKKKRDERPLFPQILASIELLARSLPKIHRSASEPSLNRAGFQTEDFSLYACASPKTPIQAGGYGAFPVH
Chain of BRAF V600E (P15056 whole entry V600E): as the sequence (P15056 whole entry) above, with V600E counted along it

Question: How did the Kd (BRAF) turn out when `Cn1cnc2ccc(Nc3c(Cl)ccc(NS(=O)(=O)N4CCCC4)c3F)cc2c1=O` [AR-31] was run?
Answer: Its Kd is 45.9 nM.

Question: What about the Kd (BRAF V600E) of the same molecule?
Answer: Its Kd is 119 nM.

Question: And the Kd (CRAF)?
Answer: Its Kd is 190 nM.

Question: What about the Kd [1] of the same molecule?
Answer: The Kd was 1210 nM.

Question: And the Kd [2]?
Answer: Its Kd is 12000 nM.

Question: And the IC50 [3]?
Answer: The IC50 was 311 nM.

Question: What about the “Percentage of Maximum paradox inducing effect from dabrafenib” value [4] of the same molecule?
Answer: Its value is 51.2%.

Question: And the EC50 [4]?
Answer: Its EC50 is greater than 1000 nM.

Question: For `CCCS(=O)(=O)Nc1ccc(F)c(Oc2ccc3ncn(C)c(=O)c3c2)c1C#N` [AR-25], which Kd (BRAF) is on record?
Answer: Its Kd is 0.1 nM.

Question: What about the Kd (BRAF V600E) of the same molecule?
Answer: The Kd was 0.2 nM.

Question: And the Kd (CRAF)?
Answer: The Kd was 0.3 nM.

Question: And the Kd [1]?
Answer: The Kd was greater than 40000 nM.

Question: And the Kd [2]?
Answer: Its Kd is greater than 40000 nM.

Question: What about the IC50 [3] of the same molecule?
Answer: Its IC50 is 1.1 nM.

Question: And the EC50 [4]?
Answer: Its EC50 is 9.6 nM.

Question: Which results are given for `Cn1cnc2ccc(Oc3c(F)ccc(NS(=O)(=O)N4CC[C@@H](F)C4)c3C#N)cc2c1=O` [Ex. 1, (3R)-N-[2-cyano-4-fluoro-3-(3-methyl-4-oxo-quinazolin-6-yl)oxy-phenyl]-3-fluoro-pyrrolidine-1-sulfonamide]?
Answer: Percentage of Maximum paradox inducing effect from dabrafenib [4]: 43.65%; P-ERK reduction in combination with MEKi cobimetinib ([5]; combination with cobimetinib at fixed dose of 10 nM, compared with encorafenib/binimetinib): superior P-ERK reduction; P-ERK inhibition as single agent ([5]; single agent, compared with Encorafenib): potent P-ERK inhibition; number of mice showing disease relapse [6]: strong impact; antitumor response ([7]; YUMM1.7 tumors, Compound Ia oral daily): robust antitumor response; recruitment of inflammatory infiltrate in tumors ([7]; flow cytometry and IHC data): triggers recruitment of inflammatory infiltrate

Question: `CN(C)S(=O)(=O)Nc1ccc(Cl)c(Nc2ccc3ncn(C)c(=O)c3c2)c1F` [AR-30] was tested. Which Kd (BRAF) did it give?
Answer: Its Kd is 174 nM.

Question: And the Kd (BRAF V600E)?
Answer: Its Kd is 504 nM.

Question: And the Kd (CRAF)?
Answer: The Kd was 822 nM.

Question: What about the Kd [1] of the same molecule?
Answer: Its Kd is 8010 nM.

Question: What about the Kd [2] of the same molecule?
Answer: Its Kd is 10400 nM.

Question: What about the IC50 [3] of the same molecule?
Answer: The IC50 was 406 nM.

Question: And the “Percentage of Maximum paradox inducing effect from dabrafenib” value [4]?
Answer: The value was 59%.

Question: And the EC50 [4]?
Answer: The EC50 was greater than 1000 nM.
